# Test results reported in patent US20240100112A1, “TRADITIONAL CHINESE MEDICINE OINTMENT FOR PREVENTING AND TREATING MASTITIS IN DAIRY COWS, AND PREPARATION METHOD THEREOF” (Hunan University of Science and Engineering, priority 2022, published 2024).
# Test system: mastitis in dairy cows
# Experiment: Treatment of dairy cows with mastitis; cure judged by sodium hydroxide curdled milk test
# Assay type: in vivo
# Conditions: dairy cows with mastitis (SMT detected); ointment 2 g externally twice a day for 5 days, or penicillin 100,000 IU breast perfusion; tested one day after stopping
# Excerpt: Fifty dairy cows with mastitis detected by Shanghai Mastitis Test (SMT) are selected from a dairy farm in Hunan Province, of which 20 cows are externally coated with the traditional Chinese medicine ointment for preventing and treating mastitis in dairy cows prepared in embodiment 1 and 20 cows are externally applied with the traditional Chinese medicine ointment for preventing and treating mastitis in dairy cows prepared in comparative example 1, with the dosage of 2 g each time, twice a day for 5 days. The remaining 10 cows are perfused with penicillin 100,000 IU after all the milk is discharged from their breasts, as a control group.
# Cure standard: one day after stopping the ointments, if curdled milk is negative by the sodium hydroxide test, the cows are judged to be cured.
smiles,measurement,value
"CC1(C)S[C@@H]2[C@H](NC(=O)Cc3ccccc3)C(=O)N2[C@H]1C(=O)O [Control group, penicillin]",Cows (head) with curdled milk being negative by sodium hydroxide test,8 head
same,Cure rate (%),80%
